Series [1] is described as follows: Pharmacokinetics in male Sprague Dawley rats after subcutaneous administration. As to conditions: plasma, rat, SC, 0.05 mg/kg. In kind it is in vivo. How it is done: The pharmacokinetics of UCN-2 derivatives was studied in male Sprague Dawley rats after subcutaneous administration (SC) at 0.05, 0.1, 0.3 or 1 mg/kg. Peptides were formulated as a solution in 10 mM phosphate pH 7.4 buffer+glycerol 85% (2.3% v/v)). […] The supernatant (200 μL) was analyzed by LC-MSMS. Pharmacokinetic parameters were calculated using established non-compartmental methods. The area under the plasma concentration curve versus time (AUC) was determined using Watson LIMS (version 7.6), with linear trapezoidal interpolation in the ascending slope and logarithmic trapezoidal interpolation in the descending slope. The portion of the AUC from the last measurable concentration to infinity was estimated from the equation, Ct/kel, where Ct represents the last measurable concentration and kel is the elimination rate constant. The latter was determined from the concentration curve versus time by linear regression at the terminal phase of the semi-logarithmic plot.

For another series, the target named is T1, human CRF2a receptor (Homo sapiens, UniProt Q13324).
T1 construct: expressed in transfected cells; host or cells: TeloHEAC cells
T1 sequence (Q13324 1-411): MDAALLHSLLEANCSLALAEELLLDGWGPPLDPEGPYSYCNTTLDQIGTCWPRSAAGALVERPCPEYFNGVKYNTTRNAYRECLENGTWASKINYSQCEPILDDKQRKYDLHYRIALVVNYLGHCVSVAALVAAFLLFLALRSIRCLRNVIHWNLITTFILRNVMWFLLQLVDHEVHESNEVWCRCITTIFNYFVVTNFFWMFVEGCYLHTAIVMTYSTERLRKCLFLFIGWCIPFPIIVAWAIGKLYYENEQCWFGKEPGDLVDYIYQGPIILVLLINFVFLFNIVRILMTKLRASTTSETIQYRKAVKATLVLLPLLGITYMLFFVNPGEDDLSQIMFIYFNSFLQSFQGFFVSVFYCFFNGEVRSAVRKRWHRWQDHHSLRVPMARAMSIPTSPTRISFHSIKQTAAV
The experiment in a line: Activity at human CRF2a receptor, cAMP functional assay in TeloHEAC cells. In kind it is cell-based. The note with it: TeloHEAC cells stably expressing human CRF2a receptor, relative to urocortin 2 (100 nM = 100%). The essentials: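 TeloHEAC cells stably expressing human CRF2a (10000 cells/well, suspended in HBSS/20 mM HEPES with 2 mM IBMX) were exposed to compounds for 30 min at 37 °C. cAMP was read as the 665/620 nm fluorescence ratio after 1 h at room temperature. EC50 was derived relative to 100 nM urocortin 2, set as 100%.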

Series [2] is described as follows: In vitro subcutaneous tissue supernatant (SCts) stability and metabolite identification, rat. In kind it is in vitro ADME. The arrangement: remaining at 2 h: dose or concentration left out as unconfirmed. As to conditions: male, Sprague Dawley; rat subcutaneous tissue supernatant (SCts), 37° C, 2 h. How it is done: In vitro metabolic stability in subcutaneous tissue supernatant (SCts) was studied in male Sprague Dawley rats. Test compounds were incubated […] for 2 hours at 37° C.
Software aided in vitro metabolite identification on SCts stability samples was performed using either Metabolite Pilot (Sciex) or Biopharma Finder (Thermo). In addition, metabolite identification using Metabolite Pilot was performed on plasma samples of Comp Y following SC administration to rat at 1 mg/kg.

For a further series, the target named is T2, CFR1R receptor (Homo sapiens, UniProt P34998).
T2 construct: host or cells: CHO-K1 (clone 2)
T2 sequence (P34998 24-415): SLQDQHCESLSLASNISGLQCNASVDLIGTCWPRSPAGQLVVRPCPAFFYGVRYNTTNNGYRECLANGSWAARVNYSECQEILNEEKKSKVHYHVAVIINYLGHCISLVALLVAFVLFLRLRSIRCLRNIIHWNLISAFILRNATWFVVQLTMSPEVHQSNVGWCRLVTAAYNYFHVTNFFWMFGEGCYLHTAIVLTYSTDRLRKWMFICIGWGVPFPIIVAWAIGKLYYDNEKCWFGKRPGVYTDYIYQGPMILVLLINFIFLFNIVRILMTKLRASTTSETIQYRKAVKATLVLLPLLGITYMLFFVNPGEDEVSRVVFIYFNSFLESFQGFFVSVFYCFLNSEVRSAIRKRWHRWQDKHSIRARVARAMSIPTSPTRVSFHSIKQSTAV
The experiment in a line: Activity at anti-target CFR1R receptor, cAMP assay in CRF1R-overexpression CHO-K1 cells. In kind it is cell-based. The note with it: 100% = Sauvagine at 100 nM; for EC50: cAMP. An outline of the steps:
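Clone 2; cryopreserved stocks (10% DMSO); 4000 cells/well final; 100% activation = Sauvagine 100 nM; otherwise as TeloHAEC protocol.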
(In general: Cyclic AMP is a second messenger, typically raised through Gs and lowered through Gi signalling.)

The nature of series [3]: Chemical stability in buffer (pH 7.4 / pH 4.5), % purity loss. In kind it is physicochemical. The note with it: 100 mM phosphate buffer pH 7.4; 40° C. vs 5° C.; 14 or 28 days. An outline of the steps:
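LC-UV gave % loss after 14 or 28 days of storage at 5 °C or 40 °C. Samples were diluted supernatants from compound incubated 1 h at room temperature at 10 mg/mL target, in 100 mM acetate pH 4.5 or 100 mM phosphate pH 7.4.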

The subject of a further series is Sprague Dawley rats. Description: Effect on systolic blood pressure, telemetry in Sprague Dawley rats. In kind it is in vivo, rat. The note with it: 0.1 mg/kg SC; for Systolic blood pressure (Mean) % change from baseline, 8 h / Systolic blood pressure (Mean) % change from baseline, 12 h / Systolic blood pressure (Mean) % change from baseline, 24 h: n=2; for Duration of action: last time point with an effect on BP still observed. An outline of the steps:
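Values are % change from a 1 h pre-dose baseline in systolic pressure, tracked by telemetry for up to 48 hours after a single 0.1 mg/kg subcutaneous dose. Rats (Sprague Dawley, n=2 per peptide) carried aortic catheters and recovered at least 10 days post-surgery; duration of action marks the last time point still showing an effect.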

Results on three compounds are retold here after patent US20260001928A1 (CORTERIA PHARMACEUTICALS, priority 2022, published 2026).

Structures are written as SMILES. *1 amine or outer side, *2 acyl side, *3 side chain or, on linkers, in order; H or OH if unused. Where a SMILES comes first, the peptide text is derived from it. Side-chain parts run from the residue outwards. [ ]: non-standard residue; d: D form. The star is where a group is joined. C20 diacid = O=C(O)CCCCCCCCCCCCCCCCCCC(=O)*; C18 diacid = O=C(O)CCCCCCCCCCCCCCCCC(=O)*; C16 diacid = O=C(O)CCCCCCCCCCCCCCC(=O)*; γGlu = O=C(O)[C@H](CCC(=O)[*:2])N[*:1]; AEEA = NCCOCCOCC(=O)O; Aib = CC(C)(N)C(=O)O

A word on the AUC(0-t): it is the area under the concentration-time curve up to a stated or last time point. What is called Cmax is the highest concentration seen after dosing. In general, Tmax refers to the time at which the peak concentration occurs. As a reminder, the half-life is the time in which the quantity being followed falls by half. By EC50 is commonly meant the concentration that produces a half-maximal response. What is called amount remaining is the share of the starting amount still present when the sample was taken.

On to `CC[C@H](C)[C@H](NC(C)=O)C(=O)N[C@H](C(=O)N[C@@H](CC(C)C)C(=O)N[C@@H](CO)C(=O)N[C@@H](CC(C)C)C(=O)N[C@@H](CC(=O)O)C(=O)N[C@@H](C(=O)N1CCC[C@H]1C(=O)N[C@H](C(=O)N[C@@H](CCCCN)C(=O)N[C@@H](CC(C)C)C(=O)N[C@@H](CCCCNC(=O)CC[C@H](NC(=O)CCCCCCCCCCCCCCCCC(=O)O)C(=O)O)C(=O)N[C@@H](CCCCN)C(=O)N[C@H](C(=O)N[C@@H](CC(C)C)C(=O)N[C@@H](CC(C)C)C(=O)N[C@@H](CCC(=O)O)C(=O)N[C@@H](CCC(N)=O)C(=O)N[C@@H](CCC(=O)O)C(=O)N[C@@H](CCCCN)C(=O)N[C@@H](CCC(N)=O)C(=O)N[C@@H](CCCCN)C(=O)NC(C)(C)C(=O)N[C@@H](CCC(N)=O)C(=O)N[C@@H](CCCNC(=N)N)C(=O)N[C@@H](CCC(=O)O)C(=O)N[C@@H](CCC(N)=O)C(=O)N[C@@H](C)C(=O)N[C@@H](CCC(=O)O)C(=O)N[C@H](C(=O)N[C@@H](CC(N)=O)C(=O)NC(C)(C)C(=O)N[C@@H](CCC(N)=O)C(=O)N[C@H](C(=O)N[C@@H](CC(C)C)C(=O)N[C@@H](C)C(=O)N[C@@H](CCC(N)=O)C(=O)N[C@H](C(N)=O)C(C)C)[C@@H](C)CC)[C@@H](C)O)[C@@H](C)CC)[C@@H](C)CC)C(C)C)C(C)C` [compound 190] (Ac-IVLSLD[dV]PIKLK([γGlu-C18 diacid])KILLEQEKQK[Aib]QREQAETN[Aib]QILAQV-NH2), for which, in series [1], the AUC(0-t) worked out at 1930 ng·h/mL, the Cmax amounted to 112 ng/mL, the time of peak concentration (Tmax) was found to be 5 h and the half-life is 5.7 h. The EC50 on human CRF2a receptor is 0.3 nM. For the same compound, the amount remaining at 2 h in series [2] stood at 95%. Further, on CFR1R receptor, the “Emax (% I)” value worked out at 9 % I and the EC50 is over 250 nM. In addition, the “Buffer stability pH 7.4 % purity loss” value in series [3] is listed as 0.0/Not Tested %.

With `CC[C@H](C)[C@H](NC(C)=O)C(=O)N[C@H](C(=O)N[C@@H](CC(C)C)C(=O)N[C@@H](CO)C(=O)N[C@@H](CC(C)C)C(=O)N[C@@H](CC(=O)O)C(=O)N[C@@H](C(=O)N1CCC[C@H]1C(=O)N[C@H](C(=O)N[C@@H](CCCCN)C(=O)N[C@@H](CC(C)C)C(=O)N[C@@H](CCCCNC(=O)COCCOCCNC(=O)CC[C@H](NC(=O)CCCCCCCCCCCCCCCCCCC(=O)O)C(=O)O)C(=O)N[C@@H](CCCCN)C(=O)N[C@H](C(=O)N[C@@H](CC(C)C)C(=O)N[C@@H](CC(C)C)C(=O)N[C@@H](CCC(=O)O)C(=O)N[C@@H](CCC(N)=O)C(=O)N[C@@H](CCC(=O)O)C(=O)N[C@@H](CCCCN)C(=O)N[C@@H](CCC(N)=O)C(=O)N[C@@H](CCCCN)C(=O)N[C@@H](CCC(=O)O)C(=O)N[C@@H](CCC(N)=O)C(=O)N[C@@H](CCCNC(=N)N)C(=O)N[C@@H](CCC(=O)O)C(=O)N[C@@H](CCC(N)=O)C(=O)N[C@@H](C)C(=O)N[C@@H](CCC(=O)O)C(=O)N[C@H](C(=O)N[C@@H](CC(N)=O)C(=O)NC(C)(C)C(=O)N[C@@H](CCC(N)=O)C(=O)N[C@H](C(=O)N[C@@H](CC(C)C)C(=O)N[C@@H](C)C(=O)N[C@@H](CCC(N)=O)C(=O)N[C@H](C(N)=O)C(C)C)[C@@H](C)CC)[C@@H](C)O)[C@@H](C)CC)[C@@H](C)CC)C(C)C)C(C)C` [compound 231] (Ac-IVLSLD[dV]PIKLK([AEEA-γGlu-C20 diacid])KILLEQEKQKEQREQAETN[Aib]QILAQV-NH2), the response at human CRF2a receptor was half-maximal at 0.28 nM (EC50). Besides, in the series on Sprague Dawley rats, the “Systolic blood pressure (Mean) % change from baseline, 8 h” value was −3%; the “Systolic blood pressure (Mean) % change from baseline, 12 h” value was −3%; the “Systolic blood pressure (Mean) % change from baseline, 24 h” value is −12%; the Duration of action was over 24 h. For the same compound, in series [2], the amount remaining at 2 h amounted to 65%. Also, at CFR1R receptor, the “Emax (% I)” value is recorded as 10 % I and the EC50 was over 250 nM. Further, the “Buffer stability pH 7.4 % purity loss” value in series [3] was 0.0/Not Tested %.

`CC[C@H](C)[C@H](NC(C)=O)C(=O)N[C@H](C(=O)N[C@@H](CC(C)C)C(=O)N[C@@H](CO)C(=O)N[C@@H](CC(C)C)C(=O)N[C@@H](CC(=O)O)C(=O)N[C@@H](C(=O)N1CCC[C@H]1C(=O)N[C@H](C(=O)N[C@@H](CCCCN)C(=O)N[C@@H](CC(C)C)C(=O)N[C@@H](CCCCNC(=O)CC[C@H](NC(=O)CCCCCCCCCCCCCCC(=O)O)C(=O)O)C(=O)N[C@@H](CCCCN)C(=O)N[C@H](C(=O)N[C@@H](CC(C)C)C(=O)N[C@@H](CC(C)C)C(=O)N[C@@H](CCC(=O)O)C(=O)N[C@@H](CCC(N)=O)C(=O)N[C@@H](CCC(=O)O)C(=O)N[C@@H](C)C(=O)N[C@@H](CCC(N)=O)C(=O)N[C@@H](CCCCN)C(=O)N[C@@H](CCCCN)C(=O)N[C@@H](CCC(N)=O)C(=O)N[C@@H](CCCNC(=N)N)C(=O)N[C@@H](CCC(=O)O)C(=O)N[C@@H](CCC(N)=O)C(=O)N[C@@H](C)C(=O)N[C@@H](CCC(=O)O)C(=O)N[C@H](C(=O)N[C@@H](CC(N)=O)C(=O)NC(C)(C)C(=O)N[C@@H](CCC(N)=O)C(=O)N[C@H](C(=O)N[C@@H](CC(C)C)C(=O)N[C@@H](C)C(=O)N[C@@H](CCC(N)=O)C(=O)N[C@H](C(N)=O)C(C)C)[C@@H](C)CC)[C@@H](C)O)[C@@H](C)CC)[C@@H](C)CC)C(C)C)C(C)C` [compound 165] (Ac-IVLSLD[dV]PIKLK([γGlu-C16 diacid])KILLEQEAQKKQREQAETN[Aib]QILAQV-NH2) registered an EC50 on human CRF2a receptor of 0.64 nM. Moreover, in the series with Sprague Dawley rats, the “Systolic blood pressure (Mean) % change from baseline, 8 h” value was −30%; the “Systolic blood pressure (Mean) % change from baseline, 12 h” value is reported as −20%; the “Systolic blood pressure (Mean) % change from baseline, 24 h” value amounted to 2%; the Duration of action is 23 h. Further, the fraction remaining at 2 h in series [2] worked out at 72%. Moreover, at CFR1R receptor, the “Emax (% I)” value was determined as 14 % I and the EC50 is over 250 nM. Further, the “Buffer stability pH 7.4 % purity loss” value in series [3] is on record as 0.0/Not Tested %.
